Experimental data from US20060105941A1, “Mixed antibiotic codrugs” (ALLERGAN, INC., priority 2004, published 2006).

What was measured:
[1] = system: bacterial conjunctivitis; experiment: Eye drop given to a patient with bacterial conjunctivitis; type: in vivo; settings: patient suffering from bacterial conjunctivitis, over a period of two weeks
Procedure: An eye drop containing compound 1 is administered to a patient suffering from bacterial conjunctivitis over a period of two weeks.

[2] = system: corneal ulcer; experiment: Eye drop given to a patient with corneal ulcer; type: in vivo; settings: patient suffering from corneal ulcer, over a period of two weeks
Procedure: An eye drop containing compound 1 is administered to a patient suffering from corneal ulcer over a period of two weeks.

Structure (SMILES): COc1c(N2CCN[C@H](C)C2)c(F)cc2c(=O)c(C(=O)OC(C)C(=O)Oc3cccc4c3C(=O)C3=C(O)C5(O)C(=O)C(C(N)=O)=C(O)C(N(C)C)C5CC3C4(C)O)cn(C3CC3)c12 (stereo partly shown) [Compound 1]
- bacterial infection after the complete treatment [1]: eliminated
- symptoms after the complete treatment [1]: relief of symptoms is experienced
- bacterial infection after the complete treatment [2]: eliminated
- symptoms after the complete treatment [2]: relief of symptoms is experienced
